Results taken from publication PMC5368959, “Uricosuric targets of tranilast” (Pharmacology Research & Perspectives, 2017).
Where “and” joins values, the source holds several entries; their conditions need not be identical. Equal values may be shown once. Read-outs that look alike come from different tables or passages of the source.

Key:
Format in all cases: cell-based
[1] = biological target: T1, SMCT1 (Homo sapiens, UniProt Q8N695); test: [14C]-nicotinate uptake by SMCT1-expressing Xenopus oocytes; conditions: for IC50: data not shown, read-out: IC50, SMCT1-mediated [14C]-nicotinate uptake
T1 sequence (Q8N695 1-610): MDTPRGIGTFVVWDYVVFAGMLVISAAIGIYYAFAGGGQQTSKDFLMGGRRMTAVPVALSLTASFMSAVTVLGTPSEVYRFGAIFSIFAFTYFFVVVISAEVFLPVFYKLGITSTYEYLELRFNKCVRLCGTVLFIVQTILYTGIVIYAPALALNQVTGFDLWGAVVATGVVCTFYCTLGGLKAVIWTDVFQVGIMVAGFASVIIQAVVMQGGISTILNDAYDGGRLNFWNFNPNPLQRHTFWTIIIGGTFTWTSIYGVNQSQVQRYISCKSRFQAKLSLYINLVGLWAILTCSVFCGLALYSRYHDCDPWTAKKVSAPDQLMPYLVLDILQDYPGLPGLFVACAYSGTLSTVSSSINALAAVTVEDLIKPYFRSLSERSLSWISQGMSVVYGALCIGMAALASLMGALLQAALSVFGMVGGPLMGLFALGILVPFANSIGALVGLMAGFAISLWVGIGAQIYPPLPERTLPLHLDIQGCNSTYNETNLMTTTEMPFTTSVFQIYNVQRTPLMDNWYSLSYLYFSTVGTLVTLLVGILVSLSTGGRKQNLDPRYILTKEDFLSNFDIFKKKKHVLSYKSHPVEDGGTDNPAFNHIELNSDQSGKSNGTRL
Method: (§1) For uptake experiments, oocytes were washed four times with ND96 medium (pH 7.4) without pyruvate and gentamycin.
(§2) Chloride ion‐dependence was also assessed; in 0 Cl^− bath, NaCl was replaced by Na‐gluconate (Na‐Gluc), KCl by K‐gluconate (K‐Gluc), MgCl2 by Mg‐gluconate, and CaCl2 by Ca‐gluconate. […] Data are mean ± S.E. with n = 12–15.

[2] = biological target: T2, NPT1 (Homo sapiens, UniProt Q14916); test: [14C]-urate uptake by NPT1-expressing Xenopus oocytes
T2 sequence (Q14916 1-467): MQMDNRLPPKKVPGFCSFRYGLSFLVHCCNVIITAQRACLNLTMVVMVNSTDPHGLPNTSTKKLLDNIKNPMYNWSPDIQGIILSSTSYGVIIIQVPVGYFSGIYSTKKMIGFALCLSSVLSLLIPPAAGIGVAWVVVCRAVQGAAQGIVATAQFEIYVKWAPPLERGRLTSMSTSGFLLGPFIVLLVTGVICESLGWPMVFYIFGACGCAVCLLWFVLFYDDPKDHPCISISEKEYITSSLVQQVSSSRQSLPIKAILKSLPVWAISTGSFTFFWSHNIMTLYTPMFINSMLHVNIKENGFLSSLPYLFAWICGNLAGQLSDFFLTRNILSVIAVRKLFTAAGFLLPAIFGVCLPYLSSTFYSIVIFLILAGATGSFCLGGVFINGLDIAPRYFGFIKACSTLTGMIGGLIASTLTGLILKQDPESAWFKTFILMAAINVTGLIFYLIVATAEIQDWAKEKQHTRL
Method: as §1
The uptake of [^14C]‐urate by NPT1‐expressing oocytes was performed in ND96 medium (pH 7.4) at ~25°C for 1 h. […] Data are mean ± S.E. with n = 12–15.

[3] = biological target: T3, GLUT9a (Homo sapiens, UniProt Q9NRM0); test: [14C]-urate uptake by GLUT9a-expressing Xenopus oocytes; conditions: for IC50: 40 μmol/L urate, NaCl medium, read-out: IC50, GLUT9a-mediated [14C]-urate uptake
T3 sequence (Q9NRM0 1-540): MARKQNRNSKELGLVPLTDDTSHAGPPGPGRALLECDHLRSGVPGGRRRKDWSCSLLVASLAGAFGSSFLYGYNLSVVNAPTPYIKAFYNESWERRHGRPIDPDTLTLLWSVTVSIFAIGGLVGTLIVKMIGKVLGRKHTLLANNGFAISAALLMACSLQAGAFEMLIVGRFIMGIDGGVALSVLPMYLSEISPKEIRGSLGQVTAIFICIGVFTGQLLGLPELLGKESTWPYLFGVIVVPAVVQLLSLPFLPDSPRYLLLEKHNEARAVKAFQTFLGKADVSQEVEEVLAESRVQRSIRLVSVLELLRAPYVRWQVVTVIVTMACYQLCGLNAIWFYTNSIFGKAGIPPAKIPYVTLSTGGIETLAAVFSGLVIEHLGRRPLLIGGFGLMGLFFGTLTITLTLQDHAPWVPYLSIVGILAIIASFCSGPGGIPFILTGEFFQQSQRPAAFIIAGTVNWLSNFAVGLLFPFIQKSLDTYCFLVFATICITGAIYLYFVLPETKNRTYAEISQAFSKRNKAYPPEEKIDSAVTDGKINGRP
Text: as §1
We sought to investigate the effect of tranilast on GLUT9a‐mediated [^14C]‐urate uptake in Xenopus laevis oocytes.

[4] = biological target: T4, SMCT2 (Homo sapiens, UniProt Q1EHB4); test: [14C]-nicotinate uptake by SMCT2-expressing Xenopus oocytes; conditions: for IC50: data not shown, read-out: IC50, SMCT2-mediated [14C]-nicotinate uptake
T4 sequence (Q1EHB4 1-618): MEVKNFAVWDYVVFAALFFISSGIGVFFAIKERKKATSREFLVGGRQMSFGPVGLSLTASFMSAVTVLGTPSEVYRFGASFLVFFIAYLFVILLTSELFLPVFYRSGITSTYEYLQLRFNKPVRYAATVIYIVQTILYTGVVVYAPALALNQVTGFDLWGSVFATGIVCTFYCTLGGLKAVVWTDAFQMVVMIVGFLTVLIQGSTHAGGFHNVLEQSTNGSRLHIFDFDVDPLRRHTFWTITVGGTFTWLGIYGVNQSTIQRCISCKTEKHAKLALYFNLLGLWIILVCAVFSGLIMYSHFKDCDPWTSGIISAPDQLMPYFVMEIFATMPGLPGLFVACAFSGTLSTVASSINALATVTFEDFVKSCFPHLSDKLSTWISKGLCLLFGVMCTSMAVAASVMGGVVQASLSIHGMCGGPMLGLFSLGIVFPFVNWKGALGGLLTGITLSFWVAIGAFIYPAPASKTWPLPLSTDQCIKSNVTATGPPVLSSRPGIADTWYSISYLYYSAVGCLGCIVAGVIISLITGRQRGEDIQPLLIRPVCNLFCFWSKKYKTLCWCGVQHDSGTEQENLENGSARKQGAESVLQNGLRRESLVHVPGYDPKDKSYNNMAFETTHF
Method: as §1, §2

For `COc1ccc(C=CC(=O)Nc2ccccc2C(=O)O)cc1OC` [tranilast, N‐(3,4‐dimethoxycinnamoyl) anthranilic acid], the IC50 [1] was ~1100 µM and > 185 µM, the IC50 ([2]; data not shown, read-out: IC50, [14C]-urate uptake by NPT1) was ~18.9 µM and the “Inhibition of NPT1-mediated urate uptake” value ([2]; drug 100 μmol/L) was “effectively inhibited”. The “GLUT9a urate transport inhibition after washing and removal of inhibitor” value [3] was “almost no inhibition”, the “Inhibition of GLUT9a urate uptake” value [3] was “efficiently inhibited” and the “Vmax of GLUT9a-mediated urate uptake” value [3] was 108.4 pmoles/oocyte/h and 61 pmoles/oocyte/h. The “mode of inhibition of GLUT9a-mediated urate transport” value [3] was “noncompetitive (mixed) inhibition”, the IC50 [3] was ~15.6 µM and the Ki ([3]; Eadie-Hofstee analysis, read-out: inhibition constant (Ki) for GLUT9a-mediated urate uptake) was 17.1 ± 1.3 µM. For the same molecule, the “IC50 for GLUT9a under membrane depolarization” value ([3]; depolarized vs polarized, data not shown) was “remained unchanged” and the IC50 [4] was ~1000 µM and > 185 µM.
For `CCc1oc2ccccc2c1C(=O)c1cc(Br)c(O)c(Br)c1` [benzbromarone], the IC50 [1] was ~49.6 µM, the IC50 [2] was ~17.1 µM and the “Inhibition of NPT1-mediated urate uptake” value ([2]; drug 100 μmol/L) was “effectively inhibited”. The “GLUT9a urate transport inhibition after washing and removal of inhibitor” value [3] was “substantially inhibited”, the “Inhibition of GLUT9a urate uptake” value [3] was “efficiently inhibited” and the “Reversibility of GLUT9a inhibition” value [3] was “not reversible”. The IC50 [3] was ~14.2 µM and the IC50 [4] was ~61.3 µM.
For `CCCN(CCC)S(=O)(=O)c1ccc(C(=O)O)cc1` [probenecid], the “Inhibition of SMCT1 nicotinate uptake” value ([1]; drug 1.0 mmol/L) was “significantly inhibited”, the “Inhibition of NPT1-mediated urate uptake” value ([2]; drug 1.0 mmol/L) was “only partially inhibited” and the inhibition at 1000 µM ([3]; drug 1.0 mmol/L) was ~60%. For the same molecule, the “Reversibility of GLUT9a inhibition” value ([3]; washout in oocytes) was “not reversible” and the “Inhibition of SMCT2 nicotinate uptake” value ([4]; drug 1.0 mmol/L) was “remained almost unaffected”.
